Assay results published in PubChem BioAssay AID200 (DTP/NCI, 2004).
“And” between values parts separate entries of the source, which are not always exact repeats. Equal values may be shown once. Inconclusive results and toxic doses are left out.

System: B6C3F1 mice, B16 melanoma ip, median survival T/C
Experiment: NCI In Vivo Anticancer Drug Screen. Data for tumor model B16 Melanoma (intraperitoneal) in B6C3F1 mice
Conditions: endpoint: median survival time, higher = longer survival
Method in brief: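 Transplantable tumor in mice; treated vs vehicle control groups; survival or tumor size measured; value = T/C ratio.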

[1] = dose: 12.5 mg/kg/injection, schedule: Q01DX009 (ip), vehicle: saline
[2] = dose: 25.0 mg/kg/injection, schedule: Q01DX009 (ip), vehicle: saline
[3] = dose: 50.0 mg/kg/injection, schedule: Q01DX009 (ip), vehicle: saline
[4] = dose: 100.0 mg/kg/injection, schedule: Q01DX009 (ip), vehicle: saline
[5] = dose: 200.0 mg/kg/injection, schedule: Q01DX009 (ip), vehicle: saline

For `COc1cccc2c1C(=O)c1c(O)c3c(c(O)c1C2=O)C[C@@](O)(/C(C)=N\O)C[C@@H]3OC1CC(N)C(O)C(C)O1` (stereo not given in full), the T/C (dose: 1.5 mg/kg/injection, schedule: Q01DX009 (ip), vehicle: saline) was 160 % of control, the T/C (dose: 3.13 mg/kg/injection, schedule: Q01DX009 (ip), vehicle: water) was 150 % of control and the T/C (dose: 6.0 mg/kg/injection, schedule: Q01DX009 (ip), vehicle: saline) was 164 % of control. For the same compound, the T/C (dose: 6.25 mg/kg/injection, schedule: Q01DX009 (ip), vehicle: water) was 182 % of control, the T/C (dose: 12.0 mg/kg/injection, schedule: Q01DX009 (ip), vehicle: saline) was 217 % of control and the T/C (dose: 12.5 mg/kg/injection, schedule: Q01DX009 (ip), vehicle: water) was 178 % of control. The T/C (dose: 24.0 mg/kg/injection, schedule: Q01DX009 (ip), vehicle: saline) was 204 % of control.
In the case of `NCCCNCCSP(=O)(O)O`, the T/C (dose: 12.5 mg/kg/injection, schedule: Q01DX009 (ip), vehicle: saline with Tween-80) is reported as 108 % of control, the T/C [1] is reported as 104 % of control and 106 % of control and the T/C (dose: 25.0 mg/kg/injection, schedule: Q01DX009 (ip), vehicle: saline with Tween-80) is reported as 97 % of control. The T/C [2] was 115 % of control and 97 % of control, the T/C (dose: 50.0 mg/kg/injection, schedule: Q01DX009 (ip), vehicle: saline with Tween-80) was 105 % of control and the T/C [3] was 109 % of control and 111 % of control. The T/C (dose: 100.0 mg/kg/injection, schedule: Q01DX009 (ip), vehicle: saline with Tween-80) was 108 % of control, the T/C [4] was 109 % of control and 115 % of control and the T/C (dose: 200.0 mg/kg/injection, schedule: Q01DX009 (ip), vehicle: saline with Tween-80) was 104 % of control. For the same compound, the T/C [5] was 121 % of control and 124 % of control.
For `CC(=O)NC(Cc1cc(I)c(O)c(I)c1)C(=O)O` (stereo not given), the T/C [3] was 121 % of control, the T/C [4] was 89 % of control and the T/C [5] was 92 % of control. The T/C (dose: 400.0 mg/kg/injection, schedule: Q01DX009 (ip), vehicle: saline) was 102 % of control.
With `CN(C)N=Nc1ccc(Cl)c2ncccc12` the T/C (dose: 3.13 mg/kg/injection, schedule: Q01DX009 (ip), vehicle: other) was 115 % of control, the T/C (dose: 6.25 mg/kg/injection, schedule: Q01DX009 (ip), vehicle: other) was 106 % of control and the T/C (dose: 12.5 mg/kg/injection, schedule: Q01DX009 (ip), vehicle: other) was 109 % of control. The T/C (dose: 25.0 mg/kg/injection, schedule: Q01DX009 (ip), vehicle: other) was 117 % of control and the T/C (dose: 50.0 mg/kg/injection, schedule: Q01DX009 (ip), vehicle: other) was 114 % of control.
In the case of `c1ccc(-c2nn(-c3ccccc3)[n+](-c3ccccc3-c3ccccc3)n2)cc1`, the T/C (dose: 5.0 mg/kg/injection, schedule: Q01DX009 (ip), vehicle: saline) is reported as 108 % of control, the T/C (dose: 10.0 mg/kg/injection, schedule: Q01DX009 (ip), vehicle: saline) is reported as 99 % of control and the T/C (dose: 20.0 mg/kg/injection, schedule: Q01DX009 (ip), vehicle: saline) is reported as 101 % of control.
`c1cnc2ncncc2n1` was tested, and the T/C [1] was 110 % of control, the T/C [2] was 107 % of control and the T/C [3] was 97 % of control. The T/C [4] was 91 % of control and the T/C [5] was 99 % of control.
For `CC[C@@H](C)[C@@H]1NC(=O)C(NC(=O)C(CC(C)C)N(C)C(=O)C2CCCN2C(=O)C(C)O)C(C)OC(=O)C(Cc2ccc(OC)cc2)N(C)C(=O)C2CCCN2C(=O)C(CC(C)C)NC(=O)C(C)C(=O)C(C(C)C)OC(=O)C[C@H]1O` (stereo not given in full), the T/C (dose: 5.0 micrograms/kg/injection, schedule: Q01DX009 (ip), vehicle: distilled water + alcohol) was 102 % of control, the T/C (dose: 10.0 micrograms/kg/injection, schedule: Q01DX009 (ip), vehicle: distilled water + alcohol) was 111 % of control and 112 % of control and the T/C (dose: 10.0 micrograms/kg/injection, schedule: Q01DX009 (ip), vehicle: other) was 120 % of control. For the same compound, the T/C (dose: 20.0 micrograms/kg/injection, schedule: Q01DX005 (ip), vehicle: other) was 120 % of control, the T/C (dose: 20.0 micrograms/kg/injection, schedule: Q01DX005 (iv), vehicle: other) was 105 % of control and the T/C (dose: 20.0 micrograms/kg/injection, schedule: Q01DX005 (sc), vehicle: other) was 111 % of control. The T/C (dose: 20.0 micrograms/kg/injection, schedule: Q01DX009 (ip), vehicle: distilled water + alcohol) was 117 % of control and 123 % of control, the T/C (dose: 40.0 micrograms/kg/injection, schedule: Q01DX005 (iv), vehicle: other) was 101 % of control and 104 % of control and the T/C (dose: 40.0 micrograms/kg/injection, schedule: Q01DX005 (sc), vehicle: other) was 108 % of control. For the same compound, the T/C (dose: 40.0 micrograms/kg/injection, schedule: Q01DX009 (ip), vehicle: distilled water + alcohol) was 124 % of control, the T/C (dose: 40.0 micrograms/kg/injection, schedule: Q01DX009 (ip), vehicle: other) was 153 % of control and the T/C (dose: 40.0 micrograms/kg/injection, schedule: Q03HX008 (ip), vehicle: saline) was 124 % of control. For the same compound, the T/C (dose: 71.0 micrograms/kg/injection, schedule: Q01DX009 (ip), vehicle: other) was 151 % of control, the T/C (dose: 80.0 micrograms/kg/injection, schedule: Q01DX005 (ip), vehicle: other) was 122 % of control and the T/C (dose: 80.0 micrograms/kg/injection, schedule: Q01DX005 (iv), vehicle: other) was 112 % of control and 96 % of control. The T/C (dose: 80.0 micrograms/kg/injection, schedule: Q01DX005 (oral), vehicle: other) was 100 % of control, the T/C (dose: 80.0 micrograms/kg/injection, schedule: Q01DX005 (sc), vehicle: other) was 113 % of control and 103 % of control and the T/C (dose: 80.0 micrograms/kg/injection, schedule: Q01DX009 (ip), vehicle: distilled water + alcohol) was 153 % of control. The T/C (dose: 80.0 micrograms/kg/injection, schedule: Q01DX009 (ip), vehicle: other) was 163 % of control, the T/C (dose: 106.0 micrograms/kg/injection, schedule: Q01DX009 (ip), vehicle: other) was 159 % of control and the T/C (dose: 160.0 micrograms/kg/injection, schedule: Q01DX001 (iv), vehicle: other) was 102 % of control. For the same compound, the T/C (dose: 160.0 micrograms/kg/injection, schedule: Q01DX001 (sc), vehicle: other) was 106 % of control, the T/C (dose: 160.0 micrograms/kg/injection, schedule: Q01DX005 (iv), vehicle: other) was 104 % of control and 106 % of control and the T/C (dose: 160.0 micrograms/kg/injection, schedule: Q01DX005 (oral), vehicle: other) was 119 % of control and 105 % of control. For the same compound, the T/C (dose: 160.0 micrograms/kg/injection, schedule: Q01DX005 (sc), vehicle: other) was 110 % of control and 122 % of control, the T/C (dose: 160.0 micrograms/kg/injection, schedule: Q01DX009 (ip), vehicle: distilled water + alcohol) was 162 % of control and 164 % of control and the T/C (dose: 160.0 micrograms/kg/injection, schedule: Q01DX009 (ip), vehicle: other) was 163 % of control. The T/C (dose: 160.0 micrograms/kg/injection, schedule: Q01DX009 (ip), vehicle: saline) was 151 % of control, the T/C (dose: 320.0 micrograms/kg/injection, schedule: Q01DX001 (iv), vehicle: other) was 99 % of control and 106 % of control and the T/C (dose: 320.0 micrograms/kg/injection, schedule: Q01DX001 (oral), vehicle: other) was 99 % of control. The T/C (dose: 320.0 micrograms/kg/injection, schedule: Q01DX001 (sc), vehicle: other) was 102 % of control, the T/C (dose: 320.0 micrograms/kg/injection, schedule: Q01DX005 (ip), vehicle: other) was 123 % of control and the T/C (dose: 320.0 micrograms/kg/injection, schedule: Q01DX005 (iv), vehicle: other) was 104 % of control and 106 % of control. The T/C (dose: 320.0 micrograms/kg/injection, schedule: Q01DX005 (oral), vehicle: other) was 104 % of control and 105 % of control, the T/C (dose: 320.0 micrograms/kg/injection, schedule: Q01DX005 (sc), vehicle: other) was 94 % of control and 105 % of control and the T/C (dose: 640.0 micrograms/kg/injection, schedule: Q01DX001 (ip), vehicle: other) was 116 % of control. For the same compound, the T/C (dose: 640.0 micrograms/kg/injection, schedule: Q01DX001 (iv), vehicle: other) was 102 % of control and 108 % of control, the T/C (dose: 640.0 micrograms/kg/injection, schedule: Q01DX001 (oral), vehicle: other) was 99 % of control and the T/C (dose: 640.0 micrograms/kg/injection, schedule: Q01DX001 (sc), vehicle: other) was 117 % of control and 102 % of control. The T/C (dose: 640.0 micrograms/kg/injection, schedule: Q01DX005 (oral), vehicle: other) was 100 % of control and 107 % of control, the T/C (dose: 1280.0 micrograms/kg/injection, schedule: Q01DX001 (ip), vehicle: other) was 124 % of control and the T/C (dose: 1280.0 micrograms/kg/injection, schedule: Q01DX001 (ip), vehicle: saline) was 117 % of control. The T/C (dose: 1280.0 micrograms/kg/injection, schedule: Q01DX001 (iv), vehicle: other) was 118 % of control and 106 % of control, the T/C (dose: 1280.0 micrograms/kg/injection, schedule: Q01DX001 (oral), vehicle: other) was 103 % of control and 108 % of control and the T/C (dose: 1280.0 micrograms/kg/injection, schedule: Q01DX001 (sc), vehicle: other) was 118 % of control and 100 % of control. For the same compound, the T/C (dose: 1280.0 micrograms/kg/injection, schedule: Q01DX005 (oral), vehicle: other) was 97 % of control and 102 % of control, the T/C (dose: 2560.0 micrograms/kg/injection, schedule: Q01DX001 (oral), vehicle: other) was 114 % of control and 100 % of control and the T/C (dose: 2560.0 micrograms/kg/injection, schedule: Q01DX001 (sc), vehicle: other) was 112 % of control. The T/C (dose: 2560.0 micrograms/kg/injection, schedule: Q01DX005 (oral), vehicle: other) was 99 % of control and 100 % of control, the T/C (dose: 5120.0 micrograms/kg/injection, schedule: Q01DX001 (oral), vehicle: other) was 101 % of control and 105 % of control and the T/C (dose: 10240.0 micrograms/kg/injection, schedule: Q01DX001 (oral), vehicle: other) was 105 % of control.
